Experimental data reported in patent US20100247642A1, “STABLE PHARMACEUTICAL FORMULATION FOR A DPP-IV INHIBITOR” (Phenomix Corporation, priority 2007, published 2010).

Assay: Excipient compatibility: stability of binary mixture of API plus excipient, purity by HPLC
Format: physicochemical
Protocol: A comparison of the stability of the API of the current invention was made, using excipients well-known in the art. […] Compound purity was determined by HPLC. The mixture of the API and the calcium phosphate was allowed to stand under the specified conditions for the stated times. Results are given as percent purity of the API at the given time point. […] Again, the mixture of the API and the microcrystalline cellulose was allowed to stand under the specified conditions for the stated times. Results are given as percent purity of the API at the given time point.

% API (percent purity of the API) (binary mixture with dibasic calcium phosphate, 2 weeks/loose cap): 77.0%
% API (percent purity of the API) (binary mixture with dibasic calcium phosphate, 2 weeks/tight cap): 77.2%
% API (percent purity of the API) (binary mixture with dibasic calcium phosphate, 4 weeks/tight cap): 71.7%
drop in API purity (binary mixture with dibasic calcium phosphate, within two weeks, regardless of exposure to atmosphere): over 10%
% API (percent purity of the API) (binary mixture with microcrystalline cellulose, 2 weeks/loose cap): 82.1%
% API (percent purity of the API) (binary mixture with microcrystalline cellulose, 4 weeks/tight cap): 90.2%
storage stability of the API in the presence of calcium phosphate (presence of calcium phosphate): massive decomposition
Compound: O=C(CNC1CCNC1)N1CCCC1B(O)O (stereo not shown) [API, pyrrolidin-3-yl-glycyl-boro-proline]
